Data set [1] has as its system mutant KRAS in cell free DNA in plasma. The data set can be described thus: Phase 1b/2 mCRC study, plasma KRAS mutant by ddPCR. The conditions noted are these: with FOLFIRI and bevacizumab. Format: in vivo, human. The protocol:
Participants must have histologically confirmed metastatic and unresectable disease, and previously failed treatment or be intolerant to fluoropyrimidine and oxaliplatin with or without bevacizumab.
KRAS in cell free DNA in plasma from patients was periodically quantified using droplet digital PCR (BioRad), where percentage of KRAS that is mutant KRAS was determined. The lower limit of sensitivity of this assay was 0.001% mutant KRAS.
KRAS MAF was measured by digital droplet PCR (ddPCR) at baseline (Cycle 1 Day 1, pre-dose) and on-treatment (Day 1 of Cycles 2 to 9). […] Clinical responses were observed across different KRAS variants, including the 3 most common in CRC. […] In addition, patients with PR and SD tended to have lower on-treatment KRAS MAF than patients with early PD.

Another data set concerns DLD-1 cells. The data set can be described thus: Cell viability (CellTiterGlo) in KRAS mutant and WT isogenic CRC cells. In kind it is cell-based. Conditions: 72h treatment. The source says:
FIG. 5 is a graph showing cell viability in onvansertib-treated KRAS mutant and WT isogenic CRC cells.
(§1) Onvansertib, an oral and highly-selective PLK1 inhibitor, is a promising therapeutic option for KRAS-mutated CRC. PLK1, a key regulator of mitosis, is overexpressed in CRC and associated with poor clinical parameters.

Data set [2] relates to HCT-116 KRAS mutant xenograft. In words: HCT-116 KRAS-mutant CRC xenograft model. In kind it is in vivo.
From the text: FIG. 6A and FIG. 6B are graphs showing anti-tumor activity of onvansertib in combination with irinotecan and 5-FU in the HCT-116 KRAS-mutant CRC xenograft model.
as §1

In another data set the target is PLK1 (Homo sapiens, UniProt P53350). The conditions noted are these: including other PLK members; cited from earlier work.
For data set [3], the system named is cell lines, both from solid as well as hematologic tumors. The conditions noted are these: large number of cell lines; cited from earlier work.
In another data set the test system is cancer cell lines. Conditions: cited from earlier work.
Another data set deals with xenograft tumor. Conditions: well tolerated doses, oral administration; cited from earlier work.
Data set [4] has as its system HT29 human colon adenocarcinoma xenografts. The conditions noted are these: in combination with irinotecan; cited from earlier work.
Data set [5] concerns disseminated model of AML. The conditions noted are these: in combination with cytarabine; cited from earlier work.
For data set [6] the following is noted: cited from earlier work.
For data set [7] the following is noted: cited from earlier work. The source holds these as a separate data set.
Data set [8] concerns advanced/metastatic solid tumors. Conditions: evaluable patients; cited from earlier work.

Molecules are shown by their SMILES. Some results are limits rather than exact numbers.

Sequence of PLK1 (P53350 whole entry): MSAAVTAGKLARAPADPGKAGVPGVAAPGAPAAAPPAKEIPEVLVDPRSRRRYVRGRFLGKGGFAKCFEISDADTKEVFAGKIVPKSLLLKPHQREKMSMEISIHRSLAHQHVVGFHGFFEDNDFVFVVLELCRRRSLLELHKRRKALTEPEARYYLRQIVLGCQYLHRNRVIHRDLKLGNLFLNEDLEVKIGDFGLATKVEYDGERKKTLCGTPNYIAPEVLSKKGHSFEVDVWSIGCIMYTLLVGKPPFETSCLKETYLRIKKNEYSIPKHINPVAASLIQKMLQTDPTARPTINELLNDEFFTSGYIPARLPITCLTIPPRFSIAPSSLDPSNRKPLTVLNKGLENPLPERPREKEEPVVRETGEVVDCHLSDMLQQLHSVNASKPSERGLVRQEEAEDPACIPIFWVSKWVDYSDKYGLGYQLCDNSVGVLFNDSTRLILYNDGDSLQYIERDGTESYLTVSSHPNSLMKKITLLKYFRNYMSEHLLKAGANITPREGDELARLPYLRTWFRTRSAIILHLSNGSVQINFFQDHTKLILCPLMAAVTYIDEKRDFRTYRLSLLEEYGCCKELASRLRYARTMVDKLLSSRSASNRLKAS

Turning to `CN1CCN(c2ccc(OC(F)(F)F)c(Nc3ncc4c(n3)-c3c(c(C(N)=O)nn3CCO)CC4)c2)CC1` [onvansertib, 1-(2-hydroxyethyl)-8-{[5-(4-methylpiperazin-1-yl)-2-(trifluoromethoxy)phenyl]amino}-4,5-dihydro-1H-pyrazolo[4,3-h] quinazoline-3-carboxamide], the “patients with KRAS undetectable within the 1st cycle” value came out at 4 patients in [1] (12 mg/m^2, 4 patients detectable at baseline) and 1 patients in [1] (15 mg/m^2, 2 patients detectable at baseline). The “change of KRAS mutant variants within the first cycle” value in data set [1] (five variants in 6 patients, 12 and 15 mg/m^2) is recorded as “decreased”. For the same compound, in the data set with DLD-1 cells, the “mitotic arrest and cell death, mutant KRAS vs wild-type cells” value is “more profound mitotic arrest and cell death in mutant KRAS cells”. Also, the combination effect result in [2] (in combination with irinotecan and 5-FU) was “synergy”. For the same compound, in data set [2] (single agent), the anti-tumor activity entry is reported as “potent anti-tumor activity”. In addition, the “specificity for PLK1 among a panel of 296 kinases” value at PLK1 is “high specificity”. In [3], the “potency in proliferation assays” value is “low nanomolar activity”. Moreover, the “effect on cell cycle” value in the data set with cancer cell lines is reported as “mitotic cell-cycle arrest followed by apoptosis”. Moreover, the xenograft tumor growth result in the data set on xenograft tumor is reported as “inhibits xenograft tumor growth”. The “tumor regression compared to each agent alone” value in [4] was “enhanced tumor regression”. Also, the survival of animals result in data set [5] is reported as “prolonged survival”. Also, the half-life result in data set [6] (in vivo) is on record as “about 24 hours”. Besides, the oral bioavailability entry in [6] (rodent and nonrodent species) is “good oral bioavailability”. The primary dose-limiting toxicities result in data set [7] (in vivo) was “neutropenia and thrombocytopenia”. Moreover, in [7] (reversible), the “recovery of hematologic toxicities” value is listed as at most 3 weeks. In addition, the “recommended phase 2 dose” value in [7] (single agent) is reported as 24 mg/m^2. Moreover, in [8], the “patients with stable disease” value is listed as 5 of 16.

(Values after patent US20230172935A1, “METHODS OF MONITORING KRAS MUTATIONS” (Cardiff Oncology, Inc., priority 2020, published 2023).)
